From US20100048704A1, “PHARMACEUTICAL AND NUTRACEUTICAL PRODUCTS COMPRISING VITAMIN K2” (NATTOPHARMA ASA, priority 2006, published 2010)

Legend:
[1] = test system: vascular smooth muscle cells; assay: Carboxylated matrix Gla-protein in culture medium with a single form of vitamin K; type: cell-based; conditions: 1% FCS, single form of vitamin K 1 μmol/L, 24 hours incubation
Procedure: (§1) Since under standard cell culture conditions no epoxides are formed, we have applied sub-optimal growth conditions by decreasing the fetal calf serum in the culture medium to 1% (v/v). […] This was ruled out in an experiment in which VSMC and MG63 were grown at 1% FCS and with only one single form of vitamin K present (1 μmol/L).

[2] = test system: vascular smooth muscle cells, MG-63 cell line, HepG2 cell line; assay: K epoxide formation in the presence of warfarin (bypassing of warfarin) in three cell types; type: cell-based; conditions: for interference with warfarin: 10 μmol/L warfarin added 18 h before and present during vitamin K incubation
Procedure: (§2) This series of cell culture experiments describe vitamin K uptake and metabolism under various conditions. The following forms of vitamin K were compared: K1, MK-4, MK-7, MK-8 and MK-9. They were tested in three different cell types: the vascular smooth muscle cells, the osteoblast-like MG-63 cell line and the hepatocyte-like HepG2 cell line. In all experiments the vitamins were used as a mixture containing 1 μmol/L of each vitamin. All data are the means of triplicate experiments.
(§3) Under normal conditions, all forms of vitamin K are taken up in their quinone form, and they are reduced into the hydroquinone before being active as a cofactor for the enzyme gammaglutamylcarboxylase. During the carboxylation they are oxidized into epoxides, which can be reduced by the membrane-bound enzyme VKOR. VKOR forms the target for drugs known as coumarin derivatives, which inactivate the enzyme and thus block the recycling of K epoxides. Vitamin K quinones (and not the epoxides) can be reduced by a second enzyme system, known as DT diaphorase. […] Coumarin derivatives are widely used as oral anticoagulants; their mode of action is based on the inhibition of clotting factor carboxylation in the liver. Interference with coumarin derivatives is thus a potential risk of vitamin K supplements. Therefore we have investigated whether and to which extend the various K vitamins interfere with warfarin. In the study described, 10 μmol/L of warfarin was added to the culture media 18 h before adding vitamin K. Also during incubation with K vitamins this concentration of warfarin was present.

MG63 [3] = assay: Carboxylated osteocalcin in culture medium with a single form of vitamin K; type: cell-based; conditions: 1% FCS, single form of vitamin K 1 μmol/L, 24 hours incubation
Procedure: as §1

[4] = test system: vascular smooth muscle cells, MG-63 cell line, HepG2 cell line; assay: K epoxide formation without warfarin under cell starvation (1% fetal calf serum); type: cell-based; conditions: no warfarin, fetal calf serum decreased to 1% (v/v)
Procedure: as §2, §1

[5] = Stability of K vitamins in cell culture media with no cells present; type: physicochemical; conditions: 1 μM of each vitamin, three growth media, over 48 hours
Procedure: Here we have checked the stability of the various forms of vitamin K (1 μM of each) in the three cell culture media with no cells present.

[6] = test system: vascular smooth muscle cells, MG-63 cell line, HepG2 cell line; assay: Cellular vitamin K uptake in three cell types; type: cell-based; conditions: for cellular uptake compared with other K vitamins: all cells, mixture containing 1 μmol/L of each vitamin
Procedure: as §2
(§4) Cells were grown until 80% confluence after which vitamin K was added in different concentrations (see FIGS. 5A-C). The added vitamin K concentration is given as nmol/L of culture medium, the vitamin K recovered is given as nmol/g of cellular protein. Note the different scales for each vitamin.
Cellular uptake of K vitamins was followed in time. In all cases a mixture of the various K vitamins (1 μmol/L final concentration in the culture medium) was added to the cells after they had grown to 80% confluence. […] The mechanism behind this cellular preference for MK-7 is not quite clear.

[7] = test system: blood clotting factor carboxylation; conditions: dosages as high as 100 μg per day; cited from earlier work
[8] = test system: vascular smooth muscle cells; assay: Cellular MK-7 uptake in vascular smooth muscle cells; type: cell-based; conditions: FIG. 5D
Procedure: as §2, §4

MG63 [9] = assay: Cellular MK-7 uptake in MG63; type: cell-based; conditions: FIG. 5D
Procedure: as §2, §4

[10] = test system: endogenous thrombin potential (ETP); assay: Endogenous thrombin potential (ETP) in platelet-rich plasma of volunteers on fish oil, with or without MK-7; type: in vivo, human
Text: Twenty healthy males (43±8 years of age) were enrolled in the study. The mean body mass index was 25.1±3.5 kg/m^2. All subjects received 5 grams of fish oil (containing 35% EPA, 25% DHA and 10% other n-3 PUFA) per day during 4 months. […] Blood samples were collected in citrate every month to prepare platelet-rich plasma. The endogenous thrombin potential (ETP), reflecting the total thrombin activity during coagulation, was monitored according to H. C. Hemker et al. (Pathophysiology of Haemostasis and Thrombosis 2003; 33:4-15). Carboxylated and non-carboxylated Matrix Gla-Protein (MGP) species were monitored using sandwich ELISAs based on conformation-specific antibodies obtained from VitaK BV (Maastricht, The Netherlands) with normal pooled plasma as a reference. The ratio between carboxylated and non-carboxylated MGP is taken as a measure for vascular vitamin K status. All values are expressed as a percentage of those in the pooled reference plasma.

osteocalcin = assay: Carboxylated / non-carboxylated osteocalcin in serum during fish oil and MK-7 intake; type: in vivo, human; conditions: 5 g/day fish oil plus 10 μg/day MK-7, months 3 and 4
Text: In the same experiment as described above, also serum was collected, in which carboxylated and non-carboxylated osteocalcin species were monitored using the conformation-specific osteocalcin kits from Takara (Japan).

[11] = Stability of MK-7 dissolved in fish oil and krill oil; type: physicochemical; conditions: for time compositions remained stable: MK-7 mixed with fish oil or krill oil
Procedure: Compositions as described in Examples 2 and 4 (MK-7 dissolved in fish oil and krill oil, respectively) were prepared to a final concentration of 2 μg of MK-7 per g of oil. Samples were prepared in sealed glass bottles and kept in a dark place at room temperature, 40° C. and 100° C., respectively. At regular times, samples were taken and analyzed for their MK-7 content. No loss of MK-7 was observed, even after 2 weeks at 100° C.

Matrix Gla-Protein (MGP) = assay: Carboxylated / non-carboxylated MGP in plasma by sandwich ELISA during fish oil and MK-7 intake; type: in vivo, human; conditions: 5 g/day fish oil plus 10 μg/day MK-7, months 2, 3 and 4
Procedure: Twenty healthy males (43±8 years of age) were enrolled in the study. The mean body mass index was 25.1±3.5 kg/m^2. All subjects received 5 grams of fish oil (containing 35% EPA, 25% DHA and 10% other n-3 PUFA) per day during 4 months. During the last 3 months of the study all volunteers received additionally one soft gel capsule per day providing 10 μg of MK-7. Blood samples were collected in citrate every month to prepare platelet-rich plasma. The endogenous thrombin potential (ETP), reflecting the total thrombin activity during coagulation, was monitored according to H. C. Hemker et al. (Pathophysiology of Haemostasis and Thrombosis 2003; 33:4-15). Carboxylated and non-carboxylated Matrix Gla-Protein (MGP) species were monitored using sandwich ELISAs based on conformation-specific antibodies obtained from VitaK BV (Maastricht, The Netherlands) with normal pooled plasma as a reference. The ratio between carboxylated and non-carboxylated MGP is taken as a measure for vascular vitamin K status. All values are expressed as a percentage of those in the pooled reference plasma.

MG63 cell line = assay: K epoxide formation in the presence of warfarin in MG63; type: cell-based; conditions: 10 μmol/L warfarin
Procedure: as §2
as §3, with “In the study described, 10 μmol/L of warfarin was added to the culture media 18 h before adding vitamin K. Also during incubation with K vitamins this concentration of warfarin was present.” left out

SMILES	Carboxylated matrix Gla-protein in the culture medium [1]	interference with warfarin [2]	Carboxylated osteocalcin in the culture medium (MG63 [3])	epoxides found without warfarin at decreased fetal calf serum [4]	stability in growth media [5]	cellular uptake compared with other K vitamins [6]	utilization of K-vitamins in the presence of warfarin (rank order) ([2]; 10 μmol/L warfarin)	other results
CC1=C(C/C=C(\C)CCC[C@H](C)CCC[C@H](C)CCCC(C)C)C(=O)c2ccccc2C1=O [K1, vitamin K1, reference compound]	12.4 ng/mL	interfere substantially	3.2 ng/mL	mainly found	fairly stable	much less		
CC(C)=CCC/C(C)=C/CC/C(C)=C/CC/C(C)=C/CC/C(C)=C/CC/C(C)=C/CC/C(C)=C/CC1=C(C)C(=O)c2ccccc2C1=O [MK-7]	13.5 ng/mL		3.9 ng/mL		fairly stable	taken up better than other K vitamins	MK-7>MK-8>MK-9	effect on warfarin anticoagulation [7]: counteract the effect of warfarin; vitamin K uptake compared between cell types [8]: highest; vitamin K uptake compared between cell types (MG63 [9]): lowest; fish-oil induced hypocoagulability (ETP) ([10]; 10 μg/day MK-7 during last 3 of 4 months on 5 g/day fish oil): not counteracted; ETP lowering effect of marine oils ([10]; MK-7 100 μg per day and higher, marine oil intake 5 grams per day): completely reversed; endogenous thrombin potential (ETP) ([10]; MK-7 between 1 and 10 μg/day, marine oil intake 5 grams per day): did not affect; change in osteocalcin carboxylation (osteocalcin): significance was lost; loss of MK-7 content ([11]; 2 μg MK-7 per g fish oil or krill oil, sealed glass bottles, dark, room temperature, 40° C., 100° C., even after 2 weeks at 100° C.): No loss; time compositions remained stable ([11]; 40° C.): ≥ 6 months; time compositions remained stable ([11]; 100° C.): at least 2 weeks; time compositions remained stable ([11]; room temperature): ≥ 3 years; change in MGP carboxylation (ratio carboxylated / non-carboxylated MGP) (Matrix Gla-Protein (MGP)): significance was lost; cellular uptake compared with other K vitamins (dose-response, Experiment 6) ([6]; all systems, notably extrahepatic cells, cells at 80% confluence): taken up surprisingly better than the other K vitamins; cellular uptake compared with other K vitamins (time course, Experiment 7) ([6]; all three cell systems, mixture 1 μmol/L): taken up better than any of the other vitamins
CC(C)=CCC/C(C)=C/CC/C(C)=C/CC/C(C)=C/CC/C(C)=C/CC/C(C)=C/CC/C(C)=C/CC/C(C)=C/CC1=C(C)C(=O)c2ccccc2C1=O [MK-8]					fairly stable	somewhat less	MK-7>MK-8>MK-9	
CC(C)=CCC/C(C)=C/CC/C(C)=C/CC/C(C)=C/CC/C(C)=C/CC/C(C)=C/CC/C(C)=C/CC/C(C)=C/CC/C(C)=C/CC1=C(C)C(=O)c2ccccc2C1=O [MK-9]					fairly stable	somewhat less	MK-7>MK-8>MK-9	epoxide formation in the presence of warfarin ([2]; 10 μmol/L warfarin, FIG. 7): hardly formed
CC(C)=CCC/C(C)=C/CC/C(C)=C/CC/C(C)=C/CC1=C(C)C(=O)c2ccccc2C1=O [MK-4]	10.7 ng/mL	interfere substantially	4.1 ng/mL	mainly found		much less		K vitamin epoxides identified in the presence of warfarin (MG63 cell line): could only identify MK-4 epoxide
